Reference: patent publication US12304912B2, “Fused bicyclic RAF inhibitors and methods for use thereof” (Jazz Pharmaceuticals Ireland Limited, priority 2020, dated 2025)
Values after ≈ are worked out from the molar mass of the structure shown.

What was measured:
[1] = Microsomal stability assay, mouse liver microsomes (MLM); assay type: in vitro ADME; conditions: 0.5 mg/mL protein, 1 μM substrate
Procedure: (§1) Microsomal Stability Assay
(§2) The stability studies were performed manually using the substrate depletion approach. Test compounds were incubated at 37° C. with cryo-preserved mouse or human liver microsomes (Corning) at a protein concentration of 0.5 mg·mL^−1 and a final substrate concentration of 1 μM. Aliquots were removed from the incubation at defined timepoints and the reaction was terminated by adding to ice-cold organic solvent. Compound concentrations were determined by LC-MS/MS analysis. The natural log of the percentage of compound remaining was plotted against each time point and the slope determined. The half-life (t1/2) and CLint were calculated using Equations 1 and 2, respectively.
(§3) HLM (human liver microsomes) and MLM (mouse liver microsomes) stability assay results are described in Tables 1-2.

[2] = Microsomal stability assay, human liver microsomes (HLM); assay type: in vitro ADME; conditions: 0.5 mg/mL protein, 1 μM substrate
Procedure: as §1, §2, §3

[3] = tested on: RAF dimers in HCT-116 cells; test: HCT-116 AlphaLISA SureFire pERK1/2 cellular assay (dimer); assay type: cell-based; conditions: Homo sapiens, HCT-116; HCT116 cells pre-dosed with 1 μM Encorafenib, 1 hr; read-out: pERK HCT116 dimer (1 hr) pIC50 (converted)
Procedure: (§4) The human HCT-116 colorectal carcinoma cell line (ATCC CCL-247) endogenously expresses the KRAS^G13D mutation, which leads to constitutive activation of the MAP kinase pathway and phosphorylation of ERK. […] Assay read outs took place 2 or 24 hours after dosing with compounds. On the first day, HCT-116 cells were harvested, resuspended in growth medium (McCoys5A with Glutamax (Life Technologies 36600021) and 10% heat-inactivated fetal bovine serum (Sigma F9665)), and counted. Cells were plated in 100 μl per well in each well of a 96-well culture dish (Sigma CLS3598) to a final density of 30,000 (2 hr read) or 15,000 (24 hr read) cells per well and incubated over night at 37° C. and 5% CO2. On day 2, the growth medium was exchanged for dosing medium (McCoys5A with Glutamax (Life Technologies 36600021) and 1% heat-inactivated fetal bovine serum (Sigma F9665)) and the cells were dosed with compounds to produce a 10-point dose response, where the top concentration was 1 μM and subsequent concentrations were at 1/3 log dilution intervals. A matched DMSO control was included. The cells were subsequently incubated for either 2 or 24 hours at 37° C. and 5% CO2. After incubation, media was removed and the cells were incubated with lysis buffer containing phosphatase inhibitors for 15 minutes at room temperature. Cell lysates were transferred to a 12 area 96 well white Optiplate™ (Perkin Elmer 6005569) and incubated with anti-mouse IgG acceptor beads, a biotinylated anti-ERK1/2 rabbit antibody recognizing both phosphorylated and non-phosphorylated ERK1/2, a mouse antibody targeted to the Thr202/Tyr204 epitope and recognizing phosphorylated ERK proteins only, and streptavidin-coated donor beads. The biotinylated antibody binds to the streptavidin-coated donor beads and the phopsho-ERK1/2 antibody binds to the acceptor beads. Plates were read on an EnVision reader (Perkin Elmer) and excitation of the beads at 680 nm with a laser induced the release of singlet oxygen molecules from the donor beads that trigger energy transfer to the acceptor beads in close proximity, producing a signal that can be measured at 570 nm. Both antibodies bound to phosphorylated ERK proteins, bringing the donor and acceptor beads into close proximity. All data were analyzed using the Dotmatics or GraphPad Prism software packages. Inhibition of ERK phosphorylation was assessed by determination of the absolute IC50 value, which is defined as the concentration of compound required to decrease the level of phosphorylated ERK proteins by 50% when compared to DMSO control.
HCT-116 AlphaLISA SureFire pERK1/2 Cellular Assay (Dimer)
The human HCT-116 colorectal carcinoma cell line (ATCC CCL-247) endogenously expresses the KRAS^G13D mutation, which leads to constitutive activation of the MAP kinase pathway and phosphorylation of ERK. First generation RAF inhibitors can promote RAF dimer formation in KRAS mutant tumours leading to a paradoxical activation of the pathway. To determine whether compounds can circumvent this problem and inhibit RAF dimers in HCT-116 cells, they were tested using AlphaLISA® SureFire® technology (Perkin Elmer p-ERK1/2 p-T202/Y204 assay kit ALSU-PERK-A10K). The main procedure is essentially the same as described above, with the following adjustments: Cells were seeded with the seeding density of 30,000 cells per well. On the second day (the day of dosing) no medium change was performed and the cells were dosed with 1 μM of Encorafenib for 1 hour (at 37° C. and 5% CO2) to induce RAF dimers and promote paradoxical dimer-dependent pERK signalling. After incubation, the cells were washed, 100 μl fresh growth medium was added, and cells were dosed with compounds of interest to produce a 10-point dose response, where the top concentration was 10 μM and subsequent concentrations are at 1/2 log dilution intervals. Cells were incubated for another hour at 37° C. and 5% CO2 before lysis and processing with the pERK AlphaLISA® SureFire® kit as described above. […]

[4] = Solubility (Sol), medium not stated; assay type: physicochemical; conditions: cells not marked (FESSIF)
[5] = tested on: BRAF monomers in A375 cells; test: A375 AlphaLISA SureFire pERK1/2 cellular assay (monomer); assay type: cell-based; conditions: Homo sapiens, A-375; A375 cells, 1 hr; read-out: pERK A375 (1 hr) pIC50 (converted)
Procedure: as §4
A375 AlphaLISA SureFire pERK1/2 Cellular Assay (Monomer)
The human A375 melanoma cell line (ATCC CRL-1619) endogenously expresses the BRAF^V600E mutation, which leads to constitutive activation of the MAP kinase pathway and phosphorylation of ERK. In BRAF^V600E mutant tumours, BRAF signals as a monomer to activate ERK. To determine whether compounds can inhibit BRAF monomers in A375 cells, they were tested using AlphaLISA® SureFire® technology (Perkin Elmer p-ERK1/2 p-T202/Y204 assay kit ALSU-PERK-A10K). The main procedure is essentially the same as described above for HCT-116 cells, with the following adjustments: The A375 cells were cultivated and dosed in Dulbecco's modified Eagle's medium containing 4.5 g/L D-glucose (Sigma D6546), 10% heat-inactivated fetal bovine serum (Sigma F9665), and 1% Sodium-Pyruvate (Sigma S8636), and seeded with a seeding density of 30,000 cells per well. No media exchange was performed before dosing with compounds to produce a 10-point dose response, where the top concentration was 10 μM and subsequent concentrations were at 1/2 log dilution intervals. Subsequently, the cells were incubated for 1 hour at 37° C. and 5% CO2 before lysis.

[6] = Plasma protein binding assay, mouse plasma (mPPB); assay type: in vitro ADME; conditions: 5 μM
Procedure: (§5) Plasma Protein Binding Assay The plasma protein binding was determined by the equilibrium dialysis method. A known concentration of compound (5 μM) in previously frozen human or mouse plasma (Sera Labs) was dialysed against phosphate buffer using a RED device (Life Technologies) for 4 hours at 37° C. The concentration of compound in the protein containing (PC) and protein free (PF) sides of the dialysis membrane were determined by LC-MS/MS and the % free compound was determined by equation 4. Data analysis was performed using Excel (Microsoft, USA). % free=(1−((PC−PF)/PC))×100 (4) hPPB (human plasma protein binding) and mPPB (mouse plasma protein binding) results are described in Tables 1-2.

FeSSIF solubility assay = assay type: physicochemical; conditions: fed state simulated intestinal fluid (FeSSIF), thermodynamic from solid, pH 5 acetate buffer, 37° C., read-out: FESSIF Sol
Procedure: FeSSIF Solubility Assay 1 mL of fed state simulated intestinal fluid (FeSSIF), prepared using FaSSIF/FeSSIF/FaSSGF powder (Biorelevant.com) and pH 5 acetate buffer, was added to 1.0 mg of compound and then incubated for 24 h (Bioshake iQ, 650 rpm, 37° C.). Following filtration under positive pressure, the concentration of compound in solution was assessed by LC-UV in comparison to the response for a calibration standard of known concentration (250 μM). FeSSIF solubility results are described in Tables 1-2.

[7] = Plasma protein binding assay, human plasma (hPPB); assay type: in vitro ADME; conditions: 5 μM, equilibrium dialysis 4 hours at 37° C.
Procedure: as §5

[8] = tested on: constitutive ERK phosphorylation in HCT-116 cells; test: HCT-116 AlphaLISA SureFire pERK1/2 cellular assay; assay type: cell-based, human; conditions: Homo sapiens, HCT-116; HCT116 cells, 2 hr, Abs; read-out: pERK HCT116 (2 hr) Abs pIC50 (converted)
Procedure: as §4, with “HCT-116” for “The human HCT-116”, “AlphaLISA SureFire pERK1/2 Cellular Assay […]” for “colorectal carcinoma cell line (ATCC CCL-247) endogenously expresses the KRAS^G13D mutation, which leads to constitutive activation of the MAP kinase pathway and phosphorylation of ERK.”, “Plates were read on an EnVision reader (Perkin Elmer) and excitation of the beads at 680 nm with a laser induced the release of singlet oxygen molecules from the donor beads that trigger energy transfer to the acceptor beads in close proximity, producing a signal that can be measured at 570 nm.” left out

[9] = equilibrium dialysis 4 hours 37° C.

Structure (SMILES)	microsomal CLint at 1 μM [1]	IC50 [3]	Sol [4]	IC50 [5]	also measured
O=C1CCc2c(Oc3ccc4c(c3)CC(c3cc(-c5ccc(C(F)(F)F)cc5)n[nH]3)CO4)ccnc2N1 (stereo not shown) [Compound 38]	4.3 µL/min/mg	3980 nM	<1.3 mg/L	8510 nM	microsomal CLint at 1 μM [2]: 3 µL/min/mg
O=C1CCc2c(Oc3ccc4c(c3)CC(c3cc(-c5cccc(C(F)(F)F)c5)n[nH]3)CO4)ccnc2N1 (stereo not shown) [Compound 42]	22 µL/min/mg	741 nM	<1.3 mg/L	891 nM	mPPB (% free) [6, 9]: <0.1 % free; microsomal CLint at 1 μM [2]: 10.6 µL/min/mg
O=C1CCc2c(Oc3ccc4c(c3)CC(c3nc5cc(C(F)(F)F)cc(Cl)c5[nH]3)CO4)ccnc2N1 (stereo not shown) [Compound 30]	–	1320 nM	<1.3 mg/L	162 nM	–
COc1cccc(-c2cc(C3COc4ccc(Oc5ccnc6c5CCC(=O)N6)cc4C3)[nH]n2)c1 (stereo not shown) [Compound 41]	46.1 µL/min/mg	302 nM	<1.2 mg/L	513 nM	mPPB (% free) [6, 9]: 1.2 % free
COc1ccc(-c2cc(C3COc4ccc(Oc5ccnc6c5CCC(=O)N6)cc4C3)[nH]n2)cc1 (stereo not shown) [Compound 43]	23.2 µL/min/mg	–	<1.2 mg/L	–	–
O=C1CCc2c(Oc3ccc4c(c3)CC(c3cc(-c5cccc(Cl)c5)n[nH]3)CO4)ccnc2N1 (stereo not shown) [Compound 37]	18.4 µL/min/mg	339 nM	<1.2 mg/L	501 nM	–
N#Cc1cccc(-c2c[nH]c(C3COc4ccc(Oc5ccnc6c5CCC(=O)N6)cc4C3)n2)c1 (stereo not shown) [Compound 16, 3-[2-[6-[(7-oxo-6,8-dihydro-5H-1,8-naphthyridin-4-yl)oxy]chroman-3-yl]-1H-imidazol-4-yl]benzonitrile]	–	617 nM	<1.2 mg/L	575 nM	–
COc1ccccc1-c1cc(C2COc3ccc(Oc4ccnc5c4CCC(=O)N5)cc3C2)[nH]n1 (stereo not shown) [Compound 40]	27.1 µL/min/mg	324 nM	<1.2 mg/L	251 nM	–
O=C1CCc2c(Oc3ccc4c(c3)CC(c3cc(-c5ccc(Cl)cc5)n[nH]3)CO4)ccnc2N1 (stereo not shown) [Compound 39]	15.4 µL/min/mg	–	<1.2 mg/L	–	–
O=C1CCc2c(Oc3ccc4c(c3)CC(c3cc(-c5ccccc5Cl)n[nH]3)CO4)ccnc2N1 (stereo not shown) [Compound 36]	18.4 µL/min/mg	174 nM	<1.2 mg/L	525 nM	mPPB (% free) [6, 9]: <0.1 % free; microsomal CLint at 1 μM [2]: 23.5 µL/min/mg
CC(C)c1cc(-c2c[nH]c(C3COc4ccc(Oc5ccnc6c5CCC(=O)N6)cc4C3)n2)ccn1 (stereo not shown) [Compound 120, 5-[3-[4-(2-isopropyl-4-pyridyl)-1H-imidazol-2-yl]chroman-6-yl]oxy-3,4-dihydro-1H-1,8-naphthyridin-2-one]	–	–	–	–	microsomal CLint at 1 μM ([1]; 37° C.): 89 µL/min/mg; mPPB (% free) ([6]; equilibrium dialysis 4 hours at 37° C.): 0.6 % free; microsomal CLint at 1 μM ([2]; 37° C.): 190 µL/min/mg; solubility thermodynamic at 24 h (FeSSIF solubility assay): 1.3 µg/mL (≈ 2.7 µM); hPPB (% free) [7]: 0.9 % free; IC50 [8]: 955 nM
